Source: article PMC2577671, “Evaluation of Dimebon in cellular model of Huntington's disease” (Molecular Neurodegeneration, 2008)

What was measured:
Assay in all cases: biochemical
Parameters in all cases: MDS Pharma Lead Profiling screen, binding assays, per cent inhibition, duplicate
Adenosine A3 = target: T1, Adenosine A3 (Homo sapiens, UniProt P0DMS8)
T1 construct: gene ADORA3
Method: (§1) The activity of Dimebon against selected set of biochemical targets was performed by MDS Pharma Services . The Dimebon was provided to MDS Pharma as dry powder, dissolved in DMSO and tested in 10 μM concentrations. The standard Lead Profiling + CYP450 screen was performed according to MDS Pharma specifications with additional custom-chosen targets added to the screen as indicated. To further understand potential mechanisms responsible for clinical effects of Dimebon, we evaluated Dimebon against a set of selected biochemical targets. Dimebon evaluation was performed by MDS Pharma Services . The standard Lead Profiling + CYP450 screen was performed with additional custom-selected targets added to the screen. The results of the screen obtained at 10 μM of Dimebon are provided as Additional File 3. […] Low affinity (50–60% inhibition) interactions were also observed for CYP450, 2C19 receptor, voltage-gated L-type Ca^2+ channel, Dopamine D4.2 receptor, and Serotonin 5-HT1 receptor. […] Supplementary file 1750-1326-3-15-S3.pdf: Additional file 3 The results of Dimebon screening against a selected set of biochemical targets. The complete results obtained by MDS Pharma with a selected list of biochemical targets using 10 μM of Dimebon as a probe. The Cat numbers refer to the MDS Pharma Services assay specification. The receptors and species are listed. Dimebon was tested at 10 μM concentratio in duplicate. The % inhibition by Dimebon is shown numerically and graphically for each receptor. Significant targets (defined as % inhibition > 50%) are highlighted in yellow. Click here for file

Adrenergic beta1 = target: T2, Adrenergic beta1 (Homo sapiens, UniProt P08588)
T2 construct: gene ADRB1
Method: as §1

Bradykinin B1 = target: T3, Bradykinin B1 (Homo sapiens, UniProt P46663)
T3 construct: gene BDKRB1
Method: as §1

Bradykinin B2 = target: T4, Bradykinin B2 (Homo sapiens, UniProt P30411)
T4 construct: gene BDKRB2
T4 sequence (P30411 whole entry): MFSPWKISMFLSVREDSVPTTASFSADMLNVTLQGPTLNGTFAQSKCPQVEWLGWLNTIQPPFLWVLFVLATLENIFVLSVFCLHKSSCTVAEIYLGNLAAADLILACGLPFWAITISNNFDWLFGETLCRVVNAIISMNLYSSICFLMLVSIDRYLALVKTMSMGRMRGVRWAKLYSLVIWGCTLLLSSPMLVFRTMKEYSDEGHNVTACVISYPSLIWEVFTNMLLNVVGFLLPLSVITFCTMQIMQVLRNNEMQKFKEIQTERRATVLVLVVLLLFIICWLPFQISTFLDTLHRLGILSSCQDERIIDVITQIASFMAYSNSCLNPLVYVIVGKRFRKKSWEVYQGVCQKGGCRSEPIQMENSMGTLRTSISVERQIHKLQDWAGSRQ
Method: as §1

Calcium Channel N-Type = target: T5, Calcium Channel N-Type (Rattus norvegicus, UniProt Q02294)
T5 construct: gene Cacna1b
T5 sequence (Q02294 whole entry): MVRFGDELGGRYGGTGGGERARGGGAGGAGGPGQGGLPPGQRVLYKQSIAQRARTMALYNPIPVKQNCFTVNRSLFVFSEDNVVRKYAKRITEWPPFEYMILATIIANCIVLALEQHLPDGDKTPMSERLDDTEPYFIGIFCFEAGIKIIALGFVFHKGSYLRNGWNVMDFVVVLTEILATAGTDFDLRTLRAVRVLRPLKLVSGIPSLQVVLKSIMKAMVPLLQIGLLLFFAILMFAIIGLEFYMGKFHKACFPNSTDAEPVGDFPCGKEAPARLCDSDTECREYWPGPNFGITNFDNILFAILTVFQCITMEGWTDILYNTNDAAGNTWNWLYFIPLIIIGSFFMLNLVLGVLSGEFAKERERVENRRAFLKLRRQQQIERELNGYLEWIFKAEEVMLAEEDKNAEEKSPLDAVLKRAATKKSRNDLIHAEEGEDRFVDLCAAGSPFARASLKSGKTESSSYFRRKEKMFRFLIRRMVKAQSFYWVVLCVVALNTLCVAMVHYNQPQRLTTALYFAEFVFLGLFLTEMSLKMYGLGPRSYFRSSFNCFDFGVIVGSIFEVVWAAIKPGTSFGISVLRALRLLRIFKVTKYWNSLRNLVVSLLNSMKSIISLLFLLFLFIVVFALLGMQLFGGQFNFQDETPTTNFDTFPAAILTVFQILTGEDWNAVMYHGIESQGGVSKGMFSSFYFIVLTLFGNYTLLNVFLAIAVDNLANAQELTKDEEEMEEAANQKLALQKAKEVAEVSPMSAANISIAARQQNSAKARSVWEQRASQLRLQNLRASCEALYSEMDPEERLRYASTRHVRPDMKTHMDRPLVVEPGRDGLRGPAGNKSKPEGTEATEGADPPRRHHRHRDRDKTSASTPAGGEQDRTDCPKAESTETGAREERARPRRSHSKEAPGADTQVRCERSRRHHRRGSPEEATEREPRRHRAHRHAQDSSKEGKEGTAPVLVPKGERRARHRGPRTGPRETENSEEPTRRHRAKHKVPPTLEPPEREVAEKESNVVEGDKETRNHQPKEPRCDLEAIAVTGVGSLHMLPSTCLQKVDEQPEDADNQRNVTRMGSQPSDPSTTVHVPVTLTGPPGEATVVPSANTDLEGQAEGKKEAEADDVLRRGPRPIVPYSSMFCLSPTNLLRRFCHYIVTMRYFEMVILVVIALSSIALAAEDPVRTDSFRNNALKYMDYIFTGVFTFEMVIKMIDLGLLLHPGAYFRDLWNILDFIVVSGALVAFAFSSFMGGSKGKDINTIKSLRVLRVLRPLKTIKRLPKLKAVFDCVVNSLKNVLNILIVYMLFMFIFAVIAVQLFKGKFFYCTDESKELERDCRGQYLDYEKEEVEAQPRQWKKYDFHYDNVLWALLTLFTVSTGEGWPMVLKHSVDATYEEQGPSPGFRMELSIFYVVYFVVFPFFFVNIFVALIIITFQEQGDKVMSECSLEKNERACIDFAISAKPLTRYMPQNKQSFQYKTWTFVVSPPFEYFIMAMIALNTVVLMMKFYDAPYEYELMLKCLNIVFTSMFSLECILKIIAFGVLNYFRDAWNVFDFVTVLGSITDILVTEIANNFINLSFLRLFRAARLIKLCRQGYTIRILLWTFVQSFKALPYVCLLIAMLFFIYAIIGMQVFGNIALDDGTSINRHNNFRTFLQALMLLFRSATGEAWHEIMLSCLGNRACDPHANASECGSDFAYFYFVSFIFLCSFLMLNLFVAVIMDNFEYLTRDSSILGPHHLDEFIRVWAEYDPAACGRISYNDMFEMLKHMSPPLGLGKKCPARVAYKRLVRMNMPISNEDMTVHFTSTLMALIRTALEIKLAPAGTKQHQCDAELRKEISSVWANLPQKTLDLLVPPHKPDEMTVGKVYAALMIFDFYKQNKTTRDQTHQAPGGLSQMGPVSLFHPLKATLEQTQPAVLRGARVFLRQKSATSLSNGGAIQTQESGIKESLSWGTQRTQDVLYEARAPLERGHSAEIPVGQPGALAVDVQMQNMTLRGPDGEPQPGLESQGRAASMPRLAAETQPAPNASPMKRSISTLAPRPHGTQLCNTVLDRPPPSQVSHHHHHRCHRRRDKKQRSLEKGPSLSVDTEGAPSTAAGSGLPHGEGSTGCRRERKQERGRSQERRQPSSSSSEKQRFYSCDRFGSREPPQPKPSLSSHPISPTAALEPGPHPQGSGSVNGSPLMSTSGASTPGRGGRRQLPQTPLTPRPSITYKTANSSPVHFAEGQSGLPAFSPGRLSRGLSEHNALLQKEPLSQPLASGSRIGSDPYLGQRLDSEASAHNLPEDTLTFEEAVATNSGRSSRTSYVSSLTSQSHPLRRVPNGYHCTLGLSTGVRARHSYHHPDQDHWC
Method: as §1

Dopamine D1 = target: T6, Dopamine D1 (Homo sapiens, UniProt P21728)
T6 construct: gene DRD1
Method: as §1

Dopamine D3 = target: T7, Dopamine D3 (Homo sapiens, UniProt P35462)
T7 construct: gene DRD3
Method: as §1

[1] = target: T8, G Protein-Coupled Receptor GPR103 (Homo sapiens, UniProt Q96P65)
T8 construct: gene QRFPR
Method: as §1

Histamine H2 receptor = target: T9, Histamine H2 receptor (Homo sapiens, UniProt P25021)
T9 construct: gene HRH2
T9 sequence (P25021 whole entry): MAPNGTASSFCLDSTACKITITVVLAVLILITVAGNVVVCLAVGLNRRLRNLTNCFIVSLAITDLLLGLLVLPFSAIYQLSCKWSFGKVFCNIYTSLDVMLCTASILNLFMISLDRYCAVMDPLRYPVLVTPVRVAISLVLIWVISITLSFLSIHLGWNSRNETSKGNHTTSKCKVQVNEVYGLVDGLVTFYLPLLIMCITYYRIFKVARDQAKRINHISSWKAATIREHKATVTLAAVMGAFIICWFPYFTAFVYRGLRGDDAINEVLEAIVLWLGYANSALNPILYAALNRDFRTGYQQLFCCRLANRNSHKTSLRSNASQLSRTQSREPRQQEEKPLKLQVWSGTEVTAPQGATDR
Method: as §1

Muscarinic M1 = target: T10, Muscarinic M1 (Homo sapiens, UniProt P11229)
T10 construct: gene CHRM1
T10 sequence (P11229 whole entry): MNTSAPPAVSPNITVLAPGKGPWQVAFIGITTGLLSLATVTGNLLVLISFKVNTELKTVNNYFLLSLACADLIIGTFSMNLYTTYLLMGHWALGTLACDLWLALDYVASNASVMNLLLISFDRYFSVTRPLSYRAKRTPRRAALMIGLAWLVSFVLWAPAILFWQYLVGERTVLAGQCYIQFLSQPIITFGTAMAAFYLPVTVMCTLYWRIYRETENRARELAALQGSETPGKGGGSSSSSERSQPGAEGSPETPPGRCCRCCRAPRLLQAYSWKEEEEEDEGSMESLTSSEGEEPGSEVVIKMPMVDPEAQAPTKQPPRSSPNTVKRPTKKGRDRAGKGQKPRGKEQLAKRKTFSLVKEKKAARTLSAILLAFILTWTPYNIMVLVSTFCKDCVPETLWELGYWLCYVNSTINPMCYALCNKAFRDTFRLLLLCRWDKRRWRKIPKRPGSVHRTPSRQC
Method: as §1

Muscarinic M3 = target: T11, Muscarinic M3 (Homo sapiens, UniProt P20309)
T11 construct: gene CHRM3
Method: as §1

Opiate kappa (OP2, KOP) = target: T12, Opiate kappa (OP2, KOP) (Homo sapiens, UniProt P41145)
T12 construct: gene OPRK1
Method: as §1

Opiate mu (OP3, MOP) = target: T13, Opiate mu (OP3, MOP) (Homo sapiens, UniProt P35372)
T13 construct: gene OPRM1
T13 sequence (P35372 whole entry): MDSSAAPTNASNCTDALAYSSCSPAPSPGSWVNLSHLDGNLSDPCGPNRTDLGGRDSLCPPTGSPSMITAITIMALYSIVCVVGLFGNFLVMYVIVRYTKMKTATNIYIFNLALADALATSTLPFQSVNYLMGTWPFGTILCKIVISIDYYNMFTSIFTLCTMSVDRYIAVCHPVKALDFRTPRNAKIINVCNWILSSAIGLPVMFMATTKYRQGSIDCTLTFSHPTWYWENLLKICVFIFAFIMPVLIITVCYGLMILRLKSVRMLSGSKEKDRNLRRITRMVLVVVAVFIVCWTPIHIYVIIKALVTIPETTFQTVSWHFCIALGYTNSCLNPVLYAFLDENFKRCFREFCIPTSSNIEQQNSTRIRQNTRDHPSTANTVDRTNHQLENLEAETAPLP
Method: as §1

Prostanoid EP4 = target: T14, Prostanoid EP4 (Homo sapiens, UniProt P35408)
T14 construct: gene PTGER4
Method: as §1

[2] = target: T15, Serotonin 5-HT2c receptor (Homo sapiens, UniProt P28335)
T15 construct: gene HTR2C
Method: as §1

Serotonin 5-HT3 = target: T16, Serotonin 5-HT3 (Homo sapiens, UniProt P46098)
T16 construct: gene HTR3A
Method: as §1

Serotonin 5-HT4 = target: T17, Serotonin 5-HT4 (Cavia porcellus, UniProt O70528)
T17 construct: gene HTR4
Method: as §1

[3] = target: T18, Transporter, Serotonin (SERT) (Homo sapiens, UniProt P31645)
T18 construct: gene SLC6A4
Method: as §1

α1A-Adrenergic receptor = target: T19, α1A-Adrenergic receptor (Rattus norvegicus, UniProt P43140)
T19 construct: gene Adra1a
T19 sequence (P43140 whole entry): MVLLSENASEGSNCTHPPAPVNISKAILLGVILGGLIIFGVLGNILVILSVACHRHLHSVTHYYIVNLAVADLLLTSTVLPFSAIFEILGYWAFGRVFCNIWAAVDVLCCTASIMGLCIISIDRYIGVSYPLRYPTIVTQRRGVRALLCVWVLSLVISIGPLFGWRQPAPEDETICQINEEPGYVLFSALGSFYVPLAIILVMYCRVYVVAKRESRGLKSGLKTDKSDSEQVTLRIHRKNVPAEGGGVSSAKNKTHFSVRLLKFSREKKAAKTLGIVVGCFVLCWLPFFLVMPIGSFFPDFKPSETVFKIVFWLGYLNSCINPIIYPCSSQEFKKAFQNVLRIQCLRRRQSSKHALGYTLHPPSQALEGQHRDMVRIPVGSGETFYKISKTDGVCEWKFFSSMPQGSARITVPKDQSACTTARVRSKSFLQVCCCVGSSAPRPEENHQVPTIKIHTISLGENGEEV
Method: as §1

α1D-Adrenergic receptor = target: T20, α1D-Adrenergic receptor (Homo sapiens, UniProt P25100)
T20 construct: gene ADRA1D
T20 sequence (P25100 whole entry): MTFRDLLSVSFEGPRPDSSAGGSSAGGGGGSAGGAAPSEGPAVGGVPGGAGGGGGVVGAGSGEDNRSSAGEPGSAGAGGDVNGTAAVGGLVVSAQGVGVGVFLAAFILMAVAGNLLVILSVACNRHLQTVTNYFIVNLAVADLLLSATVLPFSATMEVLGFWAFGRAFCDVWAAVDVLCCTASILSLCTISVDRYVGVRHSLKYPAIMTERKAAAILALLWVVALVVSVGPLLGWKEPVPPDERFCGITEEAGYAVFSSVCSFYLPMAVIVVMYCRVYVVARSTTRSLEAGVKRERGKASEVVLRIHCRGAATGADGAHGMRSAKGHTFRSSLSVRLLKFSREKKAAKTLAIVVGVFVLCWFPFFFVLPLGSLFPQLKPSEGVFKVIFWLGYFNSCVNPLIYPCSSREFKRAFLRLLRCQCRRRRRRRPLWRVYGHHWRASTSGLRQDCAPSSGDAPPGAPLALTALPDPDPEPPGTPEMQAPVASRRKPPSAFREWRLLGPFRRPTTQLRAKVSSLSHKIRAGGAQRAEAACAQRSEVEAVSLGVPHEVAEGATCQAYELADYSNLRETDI
Method: as §1

α2A-Adrenergic receptor = target: T21, α2A-Adrenergic receptor (Homo sapiens, UniProt P08913)
T21 construct: gene ADRA2A
Method: as §1

Cc1ccc2c(c1)c1c(n2CCc2ccc(C)nc2)CCN(C)C1 [Dimebon, 2,3,4,5-Tetrahydro-2,8-dimethyl-5-(2-(6-methyl-3-pyridyl)ethyl)-1H-pyrido(4,3-b)indole]
inhibition at 10 µM (Adenosine A3): 6% | inhibition at 10 µM (Adrenergic beta1): -7% | inhibition at 10 µM (Bradykinin B1): -9% | inhibition at 10 µM (Bradykinin B2): -2% | inhibition at 10 µM (Calcium Channel N-Type): 0% | inhibition at 10 µM (Dopamine D1): 70% | inhibition at 10 µM (Dopamine D3): 73% | inhibition at 10 µM [1]: 4% | inhibition at 10 µM (Histamine H2 receptor): 96% | inhibition at 10 µM (Muscarinic M1): 9% | inhibition at 10 µM (Muscarinic M3): 7% | inhibition at 10 µM (Opiate kappa (OP2, KOP)): 16% | inhibition at 10 µM (Opiate mu (OP3, MOP)): 10% | inhibition at 10 µM (Prostanoid EP4): 1% | inhibition at 10 µM [2]: 95% | inhibition at 10 µM (Serotonin 5-HT3): -7% | inhibition at 10 µM (Serotonin 5-HT4): 17% | inhibition at 10 µM [3]: -7% | inhibition at 10 µM (α1A-Adrenergic receptor): 96% | inhibition at 10 µM (α1D-Adrenergic receptor): 95% | inhibition at 10 µM (α2A-Adrenergic receptor): 97%
